From patent publication US12599622B2, “Compounds to modulate intestinal absorption of nutrients” (The Brigham and Women's Hospital, Inc., priority 2013, dated 2026)

How the values were obtained:
[1] = mechanical stability of pastes (wet and dry weight over time); assay type: physicochemical
Method: To assess mechanical stability and physical properties of ASP, each 500 mg of ASP prepared from HCl solutions (0.1-0.3N) was added to 1 ml of simulated stomach acid (pH 1.0) in 37° C. At time points including 0, 10, 30, 60, 120 and 300 minutes, supernatant was removed to measure the wet weight. The remaining paste was lyophilized to measure the dry weight.

Sprague-Dawley (SD) rats = assay: Oral Glucose Tolerance Test (OGTT) after pre-gavage; assay type: in vivo, rat; settings: 15-hour fasted rats, 500 mg/kg 3 times
Method: To evaluate the in vivo effect of ASP-PC on postprandial glucose absorption, Sprague-Dawley (SD) rats were pre-gavaged with the particles and tested using the Oral Glucose Tolerance Test (OGTT) method. […] For shorter fasting time, the rats were fasted for 5 hour (starting time: 7 am the same day of OGTT) and gavaged with saline or ASP-PC (starting time: 12 am the same day, dose: 500 mg/kg rat, 3 times, 1-hour apart for each gavage). Blood was collected from the tail vein to measure blood glucose level using a glucometer (OneTouch UltraSmart, LifeScan Inc., USA). Statistical significance was determined using a paired Student t-test. Results were considered significant when p≤0.05.
ASP-PC particles were gavaged in Sprague-Dawley (SD) rats fasted for 5 hour (FIGS. 11A, 11B, and 11C) or 15 hour (FIGS. 11D, 11E, andllF) (dose: 500 mg/kg rat, 3 times, 1-hour apart for each gavage).

[2] = followed by excretion via feces; cited from earlier work
[3] = integrative permeation test: glucose barrier on mucin-coated membrane in Franz cell; settings: paste in simulated stomach acid pH 1.0 on mucin-coated membrane; normalized to membrane without material (0% blocked)
Method: Specifically, a cellulose nitrate membrane (pore size: 0.2 μm, Whatman, Germany) was incubated in a 3% w/v porcine stomach mucin (Sigma-Aldrich, USA) solution in Hank's balanced salt solution (HBSS) and gently shaken for 2 hours at room temperature. The membrane was washed with distilled deionized water (DDW, pH 7) to remove the excess mucin solution. The mucin-coated membranes were used within 1 hour following preparation. To measure the thickness of the mucin layer, the mucin-coated membrane was lyophilized and imaged using scanning electron microscope (SEM) and the thickness of randomly selected positions was examined (average mucin layer thickness: ˜100 μm).
The dry weight was calculated from dry weights of material-attached membranes and mucin-coated membranes. […] The permeation test was performed in triplicate. The glucose concentration was measured using high performance liquid chromatography (HPLC, Agilent, USA) with an analytical C18 column (Zorbax Eclipse XDB-C18, Agilent). The flow rate was 1 ml/minute, the eluent was DDW, and the wavelength of UV detector was 195 nm.
The barrier properties of the resultant particles were measured by adding 0.9 ml of particle dispersion and 0.1 ml of 10× simulated stomach acid.

[4] = dynamic viscosity by rheometer in simulated stomach acid; assay type: physicochemical; settings: 1% w/v in simulated stomach acid
Method: Dynamic viscosity was measured using a 20-mm plate with 200-μm gaps (shear rate: 0.01-100 l/s in log scale, shear rate of 1 l/s was selected to compare viscosity of materials).

[5] = aluminum release / aluminum content by ICP-AES; assay type: physicochemical
Method: To confirm the pH dependent release of aluminum from sucralfate and ASP, aluminum-release was measured during ASP paste formation. […] The aluminum content in the supernatants was measured using inductively coupled plasma atomic emission spectroscopy (ICP-AES, ULTIMA-2, Horiba).
To measure additional aluminum release from aluminum-pre-released ASP, formed pastes were washed with DDW, and 500 mg was added to 10 ml of simulated stomach acid. The samples were vortexed for 5 minutes and incubated for 2 hours. The aluminum content in the supernatant solutions was measured using ICP-AES.

sucrose octasulfate-aluminum complex [sucralfate]
total mass liberated upon exposure to stomach acid [1]: ~10% | peak glucose values at all other time points versus saline (Sprague-Dawley (SD) rats): similar | 5-minutes glucose level following OGTT (Sprague-Dawley (SD) rats; p<0.003 vs saline): 97.8 ± 7.3 mg/dL | duration in the GI tract [2]: 2 to 6 h | blocking of glucose (barrier property to glucose permeation) [3]: 62% | viscosity [4]: very high viscosity | percentage of total aluminum released ([5]; in 0.1N HCl): ~9.4% | percentage of total aluminum released ([5]; in 0.3N HCl): ~44.8% | original aluminum content released ([5]; reaction with simulated stomach acid (pH 1.0)): ~9.4%
